Test results published in paper PMC4977465, “Repositioning organohalogen drugs: a case study for identification of potent B-Raf V600E inhibitors via docking and bioassay” (Scientific Reports, 2016).
Where two headings read alike, the source gives them in different places.

Legend:
Assay type in all cases: biochemical
B-Raf V600E = B-Raf V600E (Homo sapiens, UniProt P15056, V600E); test: ELISA-based assay of inhibitory activity against B-Raf V600E (MEK to p-MEK); conditions: for inhibition at 10 µM: read-out: Inhibition Rate (at 10 μM)
wild type B-Raf = wild type B-Raf (Homo sapiens, UniProt P15056); test: ELISA-based assay, wild type B-Raf
B-Raf S602A = biological target: T1, B-Raf S602A (Homo sapiens, UniProt P15056, S602A); test: ELISA-based assay, single point mutant B-Raf S602A
T1 construct: B-RAFT508A and B-RAFS602A, residues 433–726; made in house; host or cells: Sf9 insect cells (pFastBac Dual)
Excerpt: (§1) The mutant sequence of human BRAF kinase domain (B-RAFT508A and B-RAFS602A, residues 433–726) was inserted into the plasmid of pFastBacTM Dual. Then the recombinant plasmid was transported into the sf9 cells. Mutant protein was expressed and purified respectively.

B-Raf T508A = biological target: T2, B-Raf T508A (Homo sapiens, UniProt P15056, T508A); test: ELISA-based assay, single point mutant B-Raf T508A
T2 construct: B-RAFT508A and B-RAFS602A, residues 433–726; made in house; host or cells: Sf9 insect cells (pFastBac Dual)
Excerpt: as §1

B-Raf V600E, sequence (P15056 whole entry V600E): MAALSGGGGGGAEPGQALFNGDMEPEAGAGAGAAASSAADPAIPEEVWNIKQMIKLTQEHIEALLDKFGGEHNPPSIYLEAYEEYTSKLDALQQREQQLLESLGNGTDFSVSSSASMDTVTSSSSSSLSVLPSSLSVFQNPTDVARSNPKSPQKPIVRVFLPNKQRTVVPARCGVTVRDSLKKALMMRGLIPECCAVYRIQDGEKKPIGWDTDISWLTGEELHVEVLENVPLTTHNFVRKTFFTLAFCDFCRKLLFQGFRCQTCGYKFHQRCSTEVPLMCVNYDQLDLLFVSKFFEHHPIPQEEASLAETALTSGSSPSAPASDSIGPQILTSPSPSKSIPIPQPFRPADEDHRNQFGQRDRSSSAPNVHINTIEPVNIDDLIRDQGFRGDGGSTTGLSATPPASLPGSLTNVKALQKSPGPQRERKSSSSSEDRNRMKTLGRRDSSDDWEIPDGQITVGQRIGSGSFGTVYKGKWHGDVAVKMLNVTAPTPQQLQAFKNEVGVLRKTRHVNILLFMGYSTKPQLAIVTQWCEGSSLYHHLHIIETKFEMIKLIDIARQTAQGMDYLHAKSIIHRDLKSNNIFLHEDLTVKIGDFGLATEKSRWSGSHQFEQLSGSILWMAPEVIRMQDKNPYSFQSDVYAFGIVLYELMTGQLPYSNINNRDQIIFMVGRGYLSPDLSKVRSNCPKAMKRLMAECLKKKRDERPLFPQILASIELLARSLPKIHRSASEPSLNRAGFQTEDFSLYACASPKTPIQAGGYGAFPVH
wild type B-Raf, sequence (P15056 whole entry): as the sequence (P15056 whole entry V600E) above, with E600V counted along it
T1 sequence (P15056 433-726 S602A): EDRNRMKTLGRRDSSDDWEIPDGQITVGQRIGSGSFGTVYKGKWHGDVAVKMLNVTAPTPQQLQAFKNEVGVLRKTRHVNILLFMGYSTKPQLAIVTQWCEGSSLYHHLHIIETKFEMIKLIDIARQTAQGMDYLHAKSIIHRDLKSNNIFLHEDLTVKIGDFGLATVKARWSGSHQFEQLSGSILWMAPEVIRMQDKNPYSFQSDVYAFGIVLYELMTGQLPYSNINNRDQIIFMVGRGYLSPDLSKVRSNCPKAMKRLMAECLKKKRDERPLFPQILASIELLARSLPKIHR
T2 sequence (P15056 433-726 T508A): as the sequence (P15056 433-726 S602A) above, with T76A, A170S counted along it

SMILES: CCCS(=O)(=O)Nc1ccc(F)c(C(=O)c2c[nH]c3ncc(Cl)cc23)c1F [PLX4720]
- inhibition at 10 µM (B-Raf V600E; B-Raf V600E, 10 μM): 82.5%

SMILES: Cc1cc(C(C#N)c2ccc(Cl)cc2)c(Cl)cc1NC(=O)c1cc(I)cc(I)c1O (centres unmarked) [closantel]
- IC50 (wild type B-Raf; wild type B-Raf, read-out: IC50 B-RAF WT): 1890 nM
- IC50 (B-Raf V600E; B-Raf V600E, read-out: IC50 B-RAF V600E): 1900 nM
- inhibition at 10 µM (B-Raf V600E): 83.9%
- IC50 (B-Raf S602A; B-Raf S602A mutant, read-out: IC50 B-RAF S602A): 6.35 µM
- IC50 (B-Raf T508A; B-Raf T508A mutant, read-out: IC50 B-RAF T508A): 5.97 µM

SMILES: CC1(C)C(C=C(Cl)Cl)C1C(=O)OC(C#N)c1cccc(Oc2ccccc2)c1 (centres unmarked) [cypermethrin]
- activity against B-Raf V600E (in words) (B-Raf V600E; ELISA-based assay, 10 μM): inactive
- inhibition at 10 µM (B-Raf V600E): 17.6%

SMILES: O=C(Nc1ccc(Oc2ccc(Cl)cc2)c(Cl)c1)c1cc(I)cc(I)c1O [rafoxanide]
- IC50 (wild type B-Raf): 1940 nM
- IC50 (B-Raf V600E): 70 nM
- inhibition at 10 µM (B-Raf V600E): 73.2%
- IC50 (B-Raf S602A): 11.4 µM
- IC50 (B-Raf T508A): 15.7 µM

SMILES: CCCS(=O)(=O)Nc1ccc(F)c(C(=O)c2c[nH]c3ncc(-c4ccc(Cl)cc4)cc23)c1F [vemurafenib]
- inhibition at 10 µM (B-Raf V600E; B-Raf V600E, 10 μM): 82.9%
